# Source: PubChem BioAssay (NCI)
# “And” between values parts separate entries of the source, which are not always exact repeats. Identical values can stand only once.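 In this assay, cells in 96-well plates receive the compound at five concentrations for 48 hours. Endpoints are linearly interpolated between the surrounding concentrations. GI50 marks 50% less growth. TGI denotes the concentration required for complete inhibition of growth.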
# Tested on: OVCAR-5 ovarian
# Experiment: DTP human tumour cell line panel, 48 h
SMILES,TGI [µM],GI50 [µM]
O=C1c2ccccc2C(=O)N1CCn1ccc(NC(c2ccccc2)(c2ccccc2)c2ccccc2)nc1=O,62.6,
CC(C)(C)NNC(=O)CCn1[nH]c(=O)c(Cl)c(Cl)c1=O,> 100,
CN(C)CCNC(=O)c1cccc2ccc(-c3ccc(O)cc3)nc12,9.11,
COc1cc(Nc2ncccc2C(=O)NCc2cn(Cc3cccc(Oc4ccccc4)c3)nn2)cc(OC)c1,> 100,> 100
Nc1ccc([N+](=O)[O-])cc1N=C/C=C/c1ccccc1,> 100,81.2
COc1cc(-c2oc(=O)ccc2C#Cc2ccccn2)cc(OC)c1OC,> 100,10.5
COc1cccc(C2CC(C)(O)Oc3cc4c(cc32)OCO4)c1O (configuration not stated),> 95.7,
CCN(CC)CCCN1CCc2c([nH]c3ccccc23)C1c1cccnc1 (configuration not stated),> 100,
Cn1cc(C2=C(c3ccc(N)cc3)C(=O)NC2=O)c2ccccc21,> 25,> 25
Cc1cc(Cl)cc(OCCn2cc(F)cn2)c1-c1nc(N)nc2c1CN(C(=O)NCC(C)(F)F)C2,> 100,2.66
COc1ccc(/C=C\[N+](=O)[O-])cc1OC,19.3,4.51
CCN(CC)CCC(CNc1ccnc2cc(Cl)ccc12)c1ccc(Cl)cc1 (configuration not stated),11.2,3.01
COc1cccc(F)c1C(=O)c1cnc(NC2CCN(S(C)(=O)=O)CC2)nc1N,> 25,3.59
c1ccc2cc(-c3cc4ccccc4s3)ccc2c1,> 100,
CCOC(=O)C(C#N)C1=CC(=O)C(=O)c2ccc(OC)cc21 (configuration not stated),40.5,
COc1cc(OCc2cccc(-c3ccc(C(O)c4nccs4)cc3)c2C)cc(OC)c1C=O (configuration not stated),5.54,0.929
COC(=O)c1ccc2c(c1)nc(NC(=O)c1ccccc1)n2CCCc1ccccc1,> 100,22.6
Cc1ccc(S(=O)(=O)Nc2ccccc2C=O)cc1,67,
O=C(O)COc1ccc2c(=O)c3sc4c(=O)c5ccccc5c(=O)c4c3c(=O)c2c1,34.3,17.7
Cc1ccc(S(=O)(=O)N(C=O)N=C2CCN(Cc3ccccc3)CC2)cc1,> 100,
CC1(C)S[C@@H]2[C@H](NC(=O)C3(N)CCCCC3)C(=O)N2[C@H]1C(=O)O,> 100,
NC(=O)/C=C/C(=O)c1c(Cl)cccc1Cl,3.41,1.74

# Tested on: SF-295 CNS
# Experiment: DTP human tumour cell line panel, 48 h
SMILES,TGI,GI50 [µM]
COC(=O)C(C(=O)c1ccccc1)C(C(=O)C(=O)Nc1ccc(OC)cc1OC)C(=O)C(=O)c1ccc(C)cc1 (configuration not stated),> 100 µM,
O=C1CCC2(c3ccc(Cl)cc3)Nc3ncccc3N12 (configuration not stated),> 100 µM,
COc1ccc(Sc2[nH]c(C(C)=O)c3ccccc23)cc1,26.7 µM,11.6
CC12C/C(=C\c3ccccc3)C(=O)C3C1CCCC32,> 100 µM,
OC(CC1SCCCS1)c1ccccc1 (configuration not stated),> 100 µM,
CCCCOC(=O)CNC(=O)OC/C=C/C#CC#C/C=C/COC(=O)NCC(=O)OCCCC,> 100 µM,> 100
COc1ccc(OC)c2c1[nH]c(=O)c1c3ccccc3cn21,2.7 µM,1.25
COc1cccc2c1C(=O)c1c(O)c3c(c(O)c1C2=O)C[C@@](O)(C(=O)CO)C[C@@H]3OC1CC(N)CC(C)O1 (some centres not stated),0.208 µM and 0.13 µM,0.018
O=C1c2ccccc2C(=O)N1CCn1ccc(NC(c2ccccc2)(c2ccccc2)c2ccccc2)nc1=O,28.8 µM,
CC(C)(C)NNC(=O)CCn1[nH]c(=O)c(Cl)c(Cl)c1=O,> 100 µM,
CN(C)CCNC(=O)c1cccc2ccc(-c3ccc(O)cc3)nc12,10.8 µM,2.82
COc1cc(Nc2ncccc2C(=O)NCc2cn(Cc3cccc(Oc4ccccc4)c3)nn2)cc(OC)c1,> 100 µM,4.06
Nc1ccc([N+](=O)[O-])cc1N=C/C=C/c1ccccc1,> 100 µM,21.7
COc1cc(-c2oc(=O)ccc2C#Cc2ccccn2)cc(OC)c1OC,2.01 µM,0.224
COc1cccc(C2CC(C)(O)Oc3cc4c(cc32)OCO4)c1O (configuration not stated),64.9 µM,
